Tested on: neutrophil-to-lymphocyte ratio in blood
Assay: Neutrophil-to-lymphocyte ratio in venous blood after four weeks of curcumin-containing capsule intake
Type: in vivo, human
Experimental: Each of 20 men and women of 60 years old or older was caused to take a curcumin-containing capsule (containing 90 mg of curcumin per capsule) twice a day in the morning and the evening for four weeks (daily dose 180 mg). Venous blood was collected at start and end of administration, and a neutrophil-to-lymphocyte ratio was measured.
As a result, in a non-parametric test (Wilcoxon code rank test), the neutrophil-to-lymphocyte ratio at start of administration was 1.7 (1.3, 2.1), whereas the neutrophil-to-lymphocyte ratio at end of administration was 1.4 (1.2, 1.7).

In the case of `COc1cc(/C=C/C(=O)/C=C(O)/C=C/c2ccc(O)c(OC)c2)ccc1O` [curcumin], the “neutrophil-to-lymphocyte ratio at end of administration” value (after four weeks, 90 mg curcumin capsule twice a day (daily dose 180 mg), oral, 20 men and women of 60 years old or older, venous blood) is reported as 1.4 (1.2, 1.7), the “neutrophil-to-lymphocyte ratio at start of administration” value (baseline, 20 men and women of 60 years old or older, venous blood, spread in brackets not defined) is reported as 1.7 (1.3, 2.1) and the “change of neutrophil-to-lymphocyte ratio, start vs end of administration” value (four weeks, daily dose 180 mg, non-parametric test (Wilcoxon code rank test)) is reported as “significantly decreased”.
